Starred links: 1 amine or outer side, 2 acyl side, 3 side chain; linkers in the order of their positions; H or OH if unused. Positions of bridges follow the written chain, without caps; N, C: chain ends. Residues, ends and D or L forms follow the SMILES beside them. *: point of attachment. C18 diacid = O=C(O)CCCCCCCCCCCCCCCCC(=O)*; γGlu = O=C(O)[C@H](CCC(=O)[*:2])N[*:1]; AEEA = NCCOCCOCC(=O)O
Target: T1, human natriuretic peptide receptor 2 (hNPR2) (Homo sapiens, UniProt P20594)
T1 construct: expressed in transfected cells; host or cells: HEK293 (ATCC CRL-1573), clone 35, co-transfected with pGloSensor-42F
T1 sequence (P20594 23-1047): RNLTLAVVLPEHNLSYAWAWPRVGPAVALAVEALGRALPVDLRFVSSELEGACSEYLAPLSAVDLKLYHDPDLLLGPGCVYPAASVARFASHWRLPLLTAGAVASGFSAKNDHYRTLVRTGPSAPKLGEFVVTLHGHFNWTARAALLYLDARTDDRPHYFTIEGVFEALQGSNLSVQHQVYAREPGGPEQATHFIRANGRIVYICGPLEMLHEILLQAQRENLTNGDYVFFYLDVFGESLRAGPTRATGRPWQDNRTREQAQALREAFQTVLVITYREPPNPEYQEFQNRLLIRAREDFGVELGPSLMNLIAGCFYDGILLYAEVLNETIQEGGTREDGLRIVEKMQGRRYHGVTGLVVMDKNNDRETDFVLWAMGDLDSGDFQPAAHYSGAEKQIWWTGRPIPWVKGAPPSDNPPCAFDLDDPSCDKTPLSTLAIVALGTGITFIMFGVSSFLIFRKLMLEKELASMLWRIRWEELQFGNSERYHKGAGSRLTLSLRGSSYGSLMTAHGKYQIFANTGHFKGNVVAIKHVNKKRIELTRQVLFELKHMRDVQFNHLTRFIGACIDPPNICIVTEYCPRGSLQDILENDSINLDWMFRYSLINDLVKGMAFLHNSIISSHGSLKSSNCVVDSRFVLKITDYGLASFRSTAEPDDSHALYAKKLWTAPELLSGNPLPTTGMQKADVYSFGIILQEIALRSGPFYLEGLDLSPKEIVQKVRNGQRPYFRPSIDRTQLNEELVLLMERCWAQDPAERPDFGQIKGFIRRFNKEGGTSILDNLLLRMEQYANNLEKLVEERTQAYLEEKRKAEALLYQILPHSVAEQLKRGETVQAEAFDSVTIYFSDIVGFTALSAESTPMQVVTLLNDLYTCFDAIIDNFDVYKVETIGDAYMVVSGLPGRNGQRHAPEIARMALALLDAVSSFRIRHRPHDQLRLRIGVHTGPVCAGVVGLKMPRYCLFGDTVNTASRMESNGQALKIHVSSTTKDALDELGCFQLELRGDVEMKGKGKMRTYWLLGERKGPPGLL
Assay: In vitro hNPR2 activity assay (cGMP GloSensor reporter, HEK293)
Assay type: cell-based
Settings: potency relative to CNP22 (0065)
In short: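 Potency is the EC50 from a four-parameter logistic fit, also expressed relative to the in-plate CNP22 control (×100), with at least two replicates. Compounds (ten concentrations, […], HSA-free diluent with 1% OVA, 0.01% Tween20) were incubated 30 min at 37 °C on HEK293 cells co-expressing hNPR2 and a GloSensor cGMP luciferase. Luminescence detected with Bright-Glo.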

| SMILES | hNPR2 0% HSA. [EC50% rel CNP] [%] |
| --- | --- |
| CC[C@H](C)[C@@H]1NC(=O)[C@H](CCCNC(=N)N)NC(=O)[C@H](CC(=O)O)NC(=O)[C@H](CC(C)C)NC(=O)[C@@H]2CCCN2C(=O)[C@H](CC(C)C)NC(=O)CNC(=O)[C@H](Cc2ccccc2)NC(=O)[C@@H](NC(=O)CNC(=O)[C@H](CCC(N)=O)NC(=O)[C@H](CO)NC(=O)[C@H](CC(C)C)NC(=O)CNC(=O)[C@H](CCCCN)NC(=O)[C@H](CCCCN)NC(=O)[C@H](CCC(N)=O)NC(=O)[C@H](C)NC(=O)CNC(=O)[C@H](CCCCN)NC(=O)[C@H](Cc2ccc(O)cc2)NC(=O)[C@H](CCCCN)NC(=O)[C@H](CCCNC(=N)N)NC(=O)[C@H](C)NC(=O)COCCOCCNC(=O)COCCOCCNC(=O)COCCOCCNC(=O)CC[C@H](NC(=O)CC[C@H](NC(=O)CC[C@H](NC(=O)CC[C@H](NC(=O)CC[C@H](NC(=O)CCCCCCCCCCCCCCCCC(=O)O)C(=O)O)C(=O)O)C(=O)O)C(=O)O)C(=O)O)CSSC[C@@H](C(=O)O)NC(=O)CNC(=O)[C@H](CC(C)C)NC(=O)CNC(=O)[C@H](CO)NC(=O)[C@H](CC(C)C)NC(=O)[C@H](CO)NC(=O)CNC1=O [compound 1452] ({C18 diacid-γGlu-γGlu-γGlu-γGlu-γGlu-AEEA-AEEA-AEEA}-ARKYKGAQKKGLSQGCFGLPLDRIGSLSGLGC-OH; disulfide 16-32) | 57.6 |
| CC[C@H](C)[C@@H]1NC(=O)[C@H](CCCNC(=N)N)NC(=O)[C@H](CC(=O)O)NC(=O)[C@H](CC(C)C)NC(=O)[C@@H]2CCCN2C(=O)[C@H](CC(C)C)NC(=O)CNC(=O)[C@H](Cc2ccccc2)NC(=O)[C@@H](NC(=O)CNC(=O)[C@H](CCC(N)=O)NC(=O)[C@H](CO)NC(=O)[C@H](CC(C)C)NC(=O)CNC(=O)[C@H](CCCCN)NC(=O)[C@H](CCCCN)NC(=O)[C@H](CCC(N)=O)NC(=O)[C@H](C)NC(=O)CNC(=O)[C@H](CCCCN)NC(=O)[C@H](Cc2ccc(O)cc2)NC(=O)[C@H](CCCCN)NC(=O)[C@H](CCCNC(=N)N)NC(=O)[C@H](C)NC(=O)COCCOCCNC(=O)COCCOCCNC(=O)COCCOCCNC(=O)COCCOCCNC(=O)CC[C@H](NC(=O)CC[C@H](NC(=O)CC[C@H](NC(=O)CC[C@H](NC(=O)CCCCCCCCCCCCCCCCC(=O)O)C(=O)O)C(=O)O)C(=O)O)C(=O)O)CSSC[C@@H](C(=O)O)NC(=O)CNC(=O)[C@H](CC(C)C)NC(=O)CNC(=O)[C@H](CO)NC(=O)[C@H](CC(C)C)NC(=O)[C@H](CO)NC(=O)CNC1=O [compound 1454] ({C18 diacid-γGlu-γGlu-γGlu-γGlu-AEEA-AEEA-AEEA-AEEA}-ARKYKGAQKKGLSQGCFGLPLDRIGSLSGLGC-OH; disulfide 16-32; C-terminus assumed) | 63.6 |
| CC[C@H](C)[C@@H]1NC(=O)[C@H](CCCNC(=N)N)NC(=O)[C@H](CC(=O)O)NC(=O)[C@H](CC(C)C)NC(=O)[C@@H]2CCCN2C(=O)[C@H](CC(C)C)NC(=O)CNC(=O)[C@H](Cc2ccccc2)NC(=O)[C@@H](NC(=O)CNC(=O)[C@H](CCC(N)=O)NC(=O)[C@H](CO)NC(=O)[C@H](CC(C)C)NC(=O)CNC(=O)[C@H](CCCCN)NC(=O)[C@H](CCCCN)NC(=O)[C@H](CCC(N)=O)NC(=O)[C@H](C)NC(=O)CNC(=O)[C@H](CCCCN)NC(=O)[C@H](Cc2ccc(O)cc2)NC(=O)[C@H](CCCCN)NC(=O)[C@H](CCCNC(=N)N)NC(=O)[C@H](C)NC(=O)COCCOCCNC(=O)COCCOCCNC(=O)COCCOCCNC(=O)CC[C@H](NC(=O)CC[C@H](NC(=O)CC[C@H](NC(=O)CC[C@H](NC(=O)CCCCCCCCCCCCCCCCC(=O)O)C(=O)O)C(=O)O)C(=O)O)C(=O)O)CSSC[C@@H](C(=O)O)NC(=O)CNC(=O)[C@H](CC(C)C)NC(=O)CNC(=O)[C@H](CO)NC(=O)[C@H](CC(C)C)NC(=O)[C@H](CO)NC(=O)CNC1=O [compound 1455] ({C18 diacid-γGlu-γGlu-γGlu-γGlu-AEEA-AEEA-AEEA}-ARKYKGAQKKGLSQGCFGLPLDRIGSLSGLGC-OH; disulfide 16-32) | 43.4 |

Reference: patent publication US20240209028A1, “CNP COMPOUNDS” (priority 2022, published 2024)
